According to US20160346324A1, “Method of Inactivating Bacterial Lipases Using Oxidative Chlorine Species” (NovaBay Pharmaceuticals, Inc., priority 2015, published 2016):
Entries after “also recorded” stand apart in the source; their conditions may differ.

Key:
Type in all cases: biochemical
[1] = molecular target: T1, Burkholderia cepacia lipase (Burkholderia cepacia, UniProt P22088); experiment: Lipase Activity Assay Kit III, Burkholderia cepacia lipase treated with HOCl; conditions: one hour at 37° C.
T1 construct: purchased Sigma 62309
T1 sequence (P22088 45-364): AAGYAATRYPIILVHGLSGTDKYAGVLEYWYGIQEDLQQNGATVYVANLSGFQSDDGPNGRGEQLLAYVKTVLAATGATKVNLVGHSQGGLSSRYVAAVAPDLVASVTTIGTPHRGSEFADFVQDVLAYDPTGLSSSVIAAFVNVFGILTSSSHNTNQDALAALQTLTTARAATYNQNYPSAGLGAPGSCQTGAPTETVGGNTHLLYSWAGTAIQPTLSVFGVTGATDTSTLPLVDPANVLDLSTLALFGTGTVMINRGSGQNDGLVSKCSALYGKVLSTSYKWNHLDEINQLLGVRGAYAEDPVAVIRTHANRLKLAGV
Protocol: (§1) Lipases from Burkholderia cepacia, Pseudomonas fluorescens, Thermus thermophilus, Talaromyces flavus and Burkholderia species were obtained from Sigma (Catalog Numbers 62309, 28602, L3419, L3294 and 75577, respectively) and were diluted into sterile water for testing.
Activity of 0.01% HOCl in saline pH 4 against Burkholderia cepacia lipase was determined as follows. 0.01% HOCl was added to a solution of 2 mg/mL of Pseudomonas cepacia lipase (Sigma Aldrich®, St. Louis, Mo., USA). After an hour of incubation at 37° C., the lipase-HOCl solutions were diluted 500-fold into lipase buffer. The lipase activity was determined using the Lipase Activity Assay Kit III (Sigma Aldrich®, St. Louis, Mo., USA).
(§2) Alternative procedure: Activity of 0.01% HOCl in saline pH 4 against each lipase was determined as follows. 10 μL of 0.01% HOCl was added to 90 μL of 2 mg/mL lipase (final concentration of HOCl 0.001%). After one hour of incubation at 37° C., the lipase-HOCl solutions were diluted 500-fold into lipase buffer. Alternatively, 90 μL of 0.01% HOCl was added to 10 μL solution of 2 mg/mL lipase (final concentration of HOCl 0.009%) and after an hour of incubation at 37° C., the lipase-HOCl solutions were diluted 50-fold into lipase buffer. The lipase activity was determined using the Lipase Activity Assay Kit III (Sigma Aldrich®, St. Louis, Mo., USA).
A SpectraMax® M5 Microplate Reader was used to continuously incubate the microtiter plate at 37° C. and measure the fluorescence ([…]=529/600 nm) every 5 minutes for 1.5 hours after an initial 10-minute incubation period. The results are shown on FIG. 1.
Alternative procedure without a 10 minutes incubation: A SpectraMax® M5 Microplate Reader was used to continuously incubate the microtiter plate at 37° C. and measure the fluorescence ([…]=529/600 nm) every 5 minutes for 1.5 hours with no incubation period. The results are shown on FIG. 1. […] The results are shown on FIGS. 1, 2, and 3. […] In the presence of 0.009% HOCl, all lipases were inactivated (FIGS. 2, 3).

[2] = tested on: Pseudomonas fluorescens lipase; experiment: Lipase Activity Assay Kit III, Pseudomonas fluorescens lipase treated with HOCl; conditions: one hour at 37° C.
Protocol: as §1, §2
(§3) Alternative procedure without a 10 minutes incubation: A SpectraMax® M5 Microplate Reader was used to continuously incubate the microtiter plate at 37° C. and measure the fluorescence ([…]=529/600 nm) every 5 minutes for 1.5 hours with no incubation period. The results are shown on FIG. 1. […]
(§4) Activity of lipases from Pseudomonas fluorescens, Thermusthermophilus, flavus and Burkholderia are determined using methods similar to the one described above for Burkholderia cepacia lipase. […]

[3] = tested on: Talaromyces flavus lipase; experiment: Lipase Activity Assay Kit III, Talaromyces flavus lipase treated with HOCl; conditions: one hour at 37° C.
Protocol: as §1, §2, §3, §4

[4] = tested on: lipase; experiment: Lipase Activity Assay Kit III, lipase stock treated with equal part of test product versus sterile water; conditions: 0.01% HOCl solution, 37° C. for 1 hour
Protocol: Merck describes a fluorimetric method where lipase activity is determined using a coupled enzyme reaction, which results in the generation of methylresorufin (lex=529/lem=600 nm) proportional to the enzymatic activity present. One unit of lipase is the amount of enzyme that will generate […] of methylresorufin from the substrate per minute at 37° C. (Lipase Activity Assay Kit III Catalog Number MAK048). The lipase stock was treated with equal part of the test product. The control consisted of equal parts of the lipase stock and sterile water. Both were incubated at 37° C. for 1 hour.
The Lipase Activity Assay Kit III (Sigma MAK048) consisted of materials for a standard, a positive control and background control. Once all the controls and the standard were set-up into a 96-well microtiter plate according to the provided instructions, 2 μL of the lipase treatments were diluted into 998 μL of the provided Lipase Assay Buffer. In the microtiter plate, 2 μL of this dilution was added to 48 μL of the Lipase Assay Buffer in quintuplicate. The reaction mix was added to every well except for the standard.
Using the SpectraMax M5, the plate was shaken and incubated for 3 minutes prior to reading the relative fluorescence units (RFU) at λex/λem=529/600 nm. Incubation was continued at 37° C. and the microtiter plate was read every 5 minutes for 1 hour with shaking prior to every reading.

[5] = 0.001% HOCl final concentration
[6] = 0.009% HOCl final concentration

OCl [HOCl, hypochlorous acid]
inactivation of Burkholderia cepacia lipase [1, 5]: still active
inactivation of Burkholderia cepacia lipase [1, 6]: inactivation; also recorded: inactivated
inactivation of bacterial lipase (lipase activity, fluorescence) ([1]; 0.01% HOCl in saline pH 4, 2 mg/mL lipase): completely inactivated
inactivation of Pseudomonas fluorescens lipase [2, 5]: still active
inactivation of Pseudomonas fluorescens lipase [2, 6]: inactivation; also recorded: inactivated
inactivation of Talaromyces flavus lipase [3, 5]: inactivation; also recorded: completely inactivated
inactivation of Talaromyces flavus lipase [3, 6]: inactivated
inactivation of lipase versus sterile water control [4]: inactivates lipase
